Where two headings read alike, the source gives them in different places.

The IC50 is the point on the concentration scale where inhibition reaches its midpoint. One may read the inhibition as how much of the control response was suppressed.

The test system of assay [1] is P. falciparum Dd2 (PfLuc) line expressing firefly luciferase, asexual blood stage. Briefly: microbe, parasite or virus in culture. To be noted: Plasmodium falciparum, DD2, 8-pt dose response, 96hr. The class given is cell-based, Plasmodium falciparum.
Assay [2] has as its system P. falciparum (NF54) stage V gametocytes. Briefly: Stage V gametocyte viability assay (MitoTracker Red CMXRos high content imaging). The class given is cell-based, Plasmodium falciparum. As to conditions: Plasmodium falciparum, NF54, 72 h; for inhibition at 2 µM: read-out: Stg V Gam primary screen: Inhibition % (2uM) (n=2).
Setting [3] is: read-out: Stg V Gam dose response IC50 (µM) (n=3), 10-point dose response, n=3, 72 h.
[4] abbreviates: read-out: GAM V IC50, stage V gametocytes, 72 h.

As for `CN(Cc1ccco1)C[C@H]1OC[C@@H]2CCN(Cc3ccccn3)C[C@@H]21` [DDD01033585, CN(C[C@H]1OC[C@@H]2CCN(CC3=CC=CC=N3)C[C@H]12)CC1=CC=CO1], the IC50 in assay [1] (read-out: P. falciparum Luciferase ABS 8-pt Reconfirmation Dose Response (96hr): IC50) stood at 1650 nM; in assay [2] (setting [3]), 3.17 µM. Also, the Emax in assay [1] (read-out: P. falciparum Luciferase ABS 8-pt Reconfirmation Dose Response (96hr): Maximum inhibition (%)) was 91.7%. Further, in assay [2], the inhibition at 2 µM is 76%.

`Cc1cccc(CN2CCCC2c2cncc(Nc3nncs3)n2)c1` (stereo not shown) [DDD01058843, CC1=CC=CC(CN2CCCC2C2=CN=CC(NC3=NN=CS3)=N2)=C1]: the figures for the IC50 in assay [2] (setting [4]) and in assay [2] (setting [3]) were 0.32 µM and 0.319 µM, respectively. Moreover, the inhibition at 2 µM in assay [2] stood at 78.8%.

Regarding `Cc1cccc(CNC(Cc2ccsc2)c2nc(C)c(C)s2)n1` (stereo not shown) [DDD01059048, CC1=C(C)N=C(S1)C(CC1=CSC=C1)NCC1=CC=CC(C)=N1], the IC50 in assay [2] (setting [3]) is 3.9 µM. In assay [2], the inhibition at 2 µM was found to be 65.3%.

`Cc1nc(Nc2ncccn2)cc(C2CCCN2CC(C)C)n1` (stereo not shown) [DDD01061131, CC(C)CN1CCCC1C1=CC(NC2=NC=CC=N2)=NC(C)=N1]: the IC50 in assay [2] (setting [3]) turned out to be 6.69 µM. For the same molecule, the inhibition at 2 µM in assay [2] amounted to 66.6%.

`Cn1cccc1CNCC1CCCn2cc(C(C)(C)C)nc21` (stereo not shown) [DDD01062585, CN1C=CC=C1CNCC1CCCN2C=C(N=C12)C(C)(C)C]: the IC50 in assay [2] (setting [4]) was determined as 0.74 µM; in assay [2] (setting [3]), 0.741 µM. Further, in assay [2], the inhibition at 2 µM amounted to 74%.

On to `CC(C)(C)c1cn2c(n1)C(CNCc1cnn3ccccc13)CCC2` (stereo not shown) [DDD01062586, CC(C)(C)C1=CN2CCCC(CNCC3=C4C=CC=CN4N=C3)C2=N1], for which the IC50 in assay [2] (setting [3]) amounted to 0.11 µM. Besides, the inhibition at 2 µM in assay [2] was found to be 84.4%.

`Cc1cn2c(n1)C(CNCc1cccc3c1OCO3)CCC2` (stereo not shown) [DDD01073293, CC1=CN2CCCC(CNCC3=CC=CC4=C3OCO4)C2=N1]: the IC50 in assay [2] (setting [3]) came out at 1.62 µM. Further, the inhibition at 2 µM in assay [2] amounted to 66.7%.

For the molecule `CN(C)c1nc(N)nc(CN2CCCC2c2cccs2)n1` (stereo not shown) [DDD01075894, CN(C)C1=NC(N)=NC(CN2CCCC2C2=CC=CS2)=N1], in assay [2] (setting [3]), the IC50 amounted to 2.25 µM. Further, in assay [2], the inhibition at 2 µM came out at 66%.

In the case of `CC(C)N(CCNC(=O)c1[nH]nc2ccc(I)cc12)C(C)C` [DDD01078603, CC(C)N(CCNC(=O)C1=C2C=C(I)C=CC2=NN1)C(C)C], in assay [2] (setting [3]), the IC50 is above 10 µM. For the same molecule, the inhibition at 2 µM in assay [2] was 53.7%.

On to `COc1c(C)cnc(CN(C)C2CCCCC2)c1C` [DDD01078822, COC1=C(C)C=NC(CN(C)C2CCCCC2)=C1C], for which the IC50 in assay [2] (setting [3]) worked out at 1.45 µM. In assay [2], the inhibition at 2 µM was found to be 84.8%.

Turning to `O=C(CN1CCc2sccc2C1)Nc1ccnc2ccnn12` [DDD01078865, O=C(CN1CCC2=C(C1)C=CS2)NC1=CC=NC2=CC=NN12], in assay [2] (setting [3]), the IC50 came out at 0.116 µM. The inhibition at 2 µM in assay [2] was determined as 96.4%.

On to `CN1CCC(NCC(O)c2cccc(OCc3ccccc3)c2)CC1` (stereo not shown) [DDD01079164, CN1CCC(CC1)NCC(O)C1=CC=CC(OCC2=CC=CC=C2)=C1], for which, in assay [2] (setting [3]), the IC50 is 6.06 µM. Also, the inhibition at 2 µM in assay [2] is 53.3%.

For `Cc1cccc(CN2CCCn3c(nnc3Cn3cccn3)C2)n1` [DDD01084631, CC1=CC=CC(CN2CCCN3C(CN4C=CC=N4)=NN=C3C2)=N1], in assay [2] (setting [3]), the IC50 is 1.04 µM. In addition, in assay [2], the inhibition at 2 µM turned out to be 51.5%.

As to `O=C(C1CC2(CCNCC2)CN1)N1CCN(c2cccc(Cl)c2Cl)CC1` (stereo not shown) [DDD01243908, ClC1=CC=CC(N2CCN(CC2)C(=O)C2CC3(CN2)CCNCC3)=C1Cl], in assay [2] (setting [3]), the IC50 is 4.94 µM. Further, the inhibition at 2 µM in assay [2] is 52.8%.

On to `COCC(C)NCc1nc(-c2ccc(C)cc2)c(-c2ccccn2)[nH]1` (stereo not shown) [DDD01244737, COCC(C)NCC1=NC(=C(N1)C1=CC=C(C)C=C1)C1=CC=CC=N1], for which the IC50 in assay [2] (setting [4]) and in assay [2] (setting [3]) was 1.64 µM each time. For the same molecule, the inhibition at 2 µM in assay [2] is 72.4%.

On to `Fc1ccc2[nH]c(C3CCCN3Cc3c[nH]cn3)nc2c1` (stereo not shown) [DDD01245473, FC1=CC=C2N=C(NC2=C1)C1CCCN1CC1=CN=CN1], for which the IC50 in assay [2] (setting [3]) turned out to be 1.88 µM. Moreover, the inhibition at 2 µM in assay [2] worked out at 53.9%.

Take `CCSCC(C)NCc1cn2ccccc2n1` (stereo not shown) [DDD01245879, CCSCC(C)NCC1=CN2C=CC=CC2=N1]: in assay [2] (setting [3]), the IC50 stood at 1.71 µM. Besides, the inhibition at 2 µM in assay [2] came out at 74%.

Consider `CC(c1cccs1)N(C)Cc1cnc(-c2ccccn2)nc1` (stereo not shown) [DDD01246628, CC(N(C)CC1=CN=C(N=C1)C1=CC=CC=N1)C1=CC=CS1], for which, in assay [2] (setting [3]), the IC50 was 0.293 µM. The inhibition at 2 µM in assay [2] came to 81.7%.

For the molecule `Cc1ccc2nc(CN(C)Cc3n[nH]c4c3CCCCC4)[nH]c2c1C` [DDD01247714, CN(CC1=NC2=CC=C(C)C(C)=C2N1)CC1=C2CCCCCC2=NN1], the IC50 in assay [2] (setting [3]) stood at 1.62 µM. The inhibition at 2 µM in assay [2] is 89.8%.

Turning to `CNc1cc(C)nc(NCc2cc(C)cc3c(C)c(C)[nH]c23)n1` [DDD01248198, CNC1=CC(C)=NC(NCC2=C3NC(C)=C(C)C3=CC(C)=C2)=N1], the IC50 in assay [2] (setting [4]) was determined as 0.79 µM; in assay [2] (setting [3]), 0.791 µM. For the same molecule, in assay [2], the inhibition at 2 µM was found to be 70.7%.

Consider `COCc1noc(-c2ccc(N(C)Cc3ncccc3C)nc2)n1` [DDD01248427, COCC1=NOC(=N1)C1=CC=C(N=C1)N(C)CC1=NC=CC=C1C], for which, in assay [2] (setting [3]), the IC50 amounted to 1.02 µM. The inhibition at 2 µM in assay [2] is 58.1%.

Consider `CCSCCNc1nc(-c2ccccn2)nc2c1c(C)nn2C` [DDD01253625, CCSCCNC1=C2C(C)=NN(C)C2=NC(=N1)C1=CC=CC=N1], for which the IC50 in assay [2] (setting [4]) worked out at 1.88 µM; in assay [2] (setting [3]), 1.89 µM. Further, the inhibition at 2 µM in assay [2] stood at 58.4%.

As for `Cc1nn(C)c2nc(-c3ccccn3)nc(NCCCOC(C)C)c12` [DDD01254389, CC(C)OCCCNC1=C2C(C)=NN(C)C2=NC(=N1)C1=CC=CC=N1], the IC50 in assay [2] (setting [4]) and in assay [2] (setting [3]) was 1.71 µM each time. For the same molecule, the inhibition at 2 µM in assay [2] was 61.4%.

On to `Cc1cc2nc(C(C)C)cc(NCC(c3ccccn3)N(C)C)n2n1` (stereo not shown) [DDD01256956, CC(C)C1=NC2=CC(C)=NN2C(NCC(N(C)C)C2=CC=CC=N2)=C1], for which the IC50 in assay [2] (setting [3]) is 0.933 µM. Further, in assay [2], the inhibition at 2 µM came out at 64.8%.

Take `Cc1cnc2c(S(=O)(=O)NC3CCS(=O)(=O)C3)cccc2c1` (stereo not shown) [DDD01296003, CC1=CN=C2C(C=CC=C2S(=O)(=O)NC2CCS(=O)(=O)C2)=C1]: in assay [2] (setting [3]), the concentration for half-maximal inhibition (IC50) is 2.28 µM. For the same molecule, the inhibition at 2 µM in assay [2] is 76.3%.

Consider `COc1cc(CNC(c2ccccc2)c2nccn2C)cc(OC)c1` (stereo not shown) [DDD01296506, COC1=CC(OC)=CC(CNC(C2=NC=CN2C)C2=CC=CC=C2)=C1], for which, in assay [2] (setting [3]), the IC50 worked out at 0.513 µM. For the same molecule, the inhibition at 2 µM in assay [2] turned out to be 58.3%.

`Cc1cnn(CC2CCCN2Cc2nc(C)c3ccccc3n2)c1` (stereo not shown) [DDD01298810, CC1=CN(CC2CCCN2CC2=NC(C)=C3C=CC=CC3=N2)N=C1]: the IC50 in assay [2] (setting [3]) came out at 0.296 µM. Also, the inhibition at 2 µM in assay [2] is 51.9%.

In the case of `Cc1nnc(NCc2ccccc2Cl)c(C#N)c1C` [DDD01302395, CC1=NN=C(NCC2=CC=CC=C2Cl)C(C#N)=C1C], the half-maximal inhibitory concentration (IC50) in assay [2] (setting [3]) was above 9.58 µM. Besides, in assay [2], the inhibition at 2 µM amounted to 68.1%.
